{"source": "patent US9828385B2", "about": "“Spiro-oxazolones” (Hoffmann-La Roche Inc., priority 2014, dated 2017)"}
{"target": "T1, human V1a receptor (Homo sapiens, UniProt P37288)", "T1 construct": "expressed in transfected cells; host or cells: HEK293 cells, transiently transfected; cell membranes", "T1 sequence (P37288 whole entry)": "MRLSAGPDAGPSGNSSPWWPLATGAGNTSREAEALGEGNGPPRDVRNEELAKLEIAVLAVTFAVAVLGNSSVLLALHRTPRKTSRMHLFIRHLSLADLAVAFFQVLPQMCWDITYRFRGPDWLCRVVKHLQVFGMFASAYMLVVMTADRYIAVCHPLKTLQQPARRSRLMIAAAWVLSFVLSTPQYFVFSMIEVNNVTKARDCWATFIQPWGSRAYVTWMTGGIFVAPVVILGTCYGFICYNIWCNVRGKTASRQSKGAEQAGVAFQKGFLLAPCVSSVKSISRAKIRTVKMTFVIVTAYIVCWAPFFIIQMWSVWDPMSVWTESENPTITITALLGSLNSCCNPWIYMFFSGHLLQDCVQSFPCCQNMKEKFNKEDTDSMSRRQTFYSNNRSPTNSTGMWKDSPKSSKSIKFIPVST", "test": "human V1a receptor binding studies (3H-Vasopressin, SPA beads)", "settings": "membranes of HEK293 cells transiently transfected with human V1a receptor, Ki by Cheng-Prussoff from IC50, read-out: pKi hV1a (converted)", "method": "The human V1a receptor was cloned by RT-PCR from total human liver RNA. The coding sequence was subcloned in an expression vector after sequencing to confirm the identity of the amplified sequence. […] Cell membranes were prepared from HEK293 cells transiently transfected with the expression vector and grown in 20 liter fermenters with the following protocol.\n50 g of cells are re-suspended in 30 ml freshly prepared ice cold Lysis buffer (50 mM HEPES, 1 mM EDTA, 10 mM MgCl2 adjusted to pH=7.4+complete cocktail of protease inhibitor (Roche Diagnostics)). Homogenized with Polytron for 1 min and sonicated on ice for 2×2 minutes at 80% intensity (Vibracell sonicator). The preparation is centrifuged 20 min at 500 g at 4° C., the pellet is discarded and the supernatant centrifuged 1 hour at 43′000 g at 4° C. (19′000 rpm). The pellet is re-suspended in 12.5 ml Lysis buffer+12.5 ml Sucrose 20% and homogenized using a Polytron for 1-2 min. The protein concentration is determined by the Bradford method and aliquots are stored at −80° C. until use. For binding studies 60 mg Yttrium silicate SPA beads (Amersham) are mixed with an aliquot of membrane in binding buffer (50 mM Tris, 120 mM NaCl, 5 mM KCl, 2 mM CaCl2, 10 mM MgCl2) for 15 minutes with mixing. 50 μl of bead/membrane mixture is then added to each well of a 96 well plate, followed by 50 μl of 4 nM 3H-Vasopressin (American Radiolabeled Chemicals). For total binding measurement 100 μl of binding buffer are added to the respective wells, for non-specific binding 100 μl of […] cold vasopressin and for compound testing 100 μl of a serial dilution of each compound in 2% DMSO. The plate is incubated 1 h at room temperature, centrifuged 1 min at 1000 g and counted on a Packard Top-Count. Non-specific binding counts are subtracted from each well and data is normalized to the maximum specific binding set at 100%. To calculate an IC 50 the curve is fitted using a non-linear regression model (XLfit) and the Ki is calculated using the Cheng-Prussoff equation.", "units": {"Ki": "nM"}}
{"smiles": "CC(C)(C)OC(=O)N1CCC2(CC1)OC(N1CCC3(CC1)OCc1ccccc13)=NC2=O", "note": "[Example 134, tert-Butyl 4-oxo-2-(1′H,3H-spiro[2-benzofuran-1,4′-piperidin]-1′-yl)-1-oxa-3,8-diazaspiro[4.5]dec-2-ene-8-carboxylate]", "Ki": 158}
{"smiles": "CCCCC1(C)OC(N2CCC3(CC2)OCc2ccccc23)=NC1=O", "note": "(single isomer, unassigned; (+)) [Example 67, (+)-5-Butyl-5-methyl-2-(1′H,3H-spiro[2-benzofuran-1,4′-piperidin]-1′-yl)-1,3-oxazol-4(5H)-one]", "Ki": 25.1}
{"smiles": "CC1(C(F)c2ccc(Cl)cc2)OC(N2CCC3(CC2)OCc2ccccc23)=NC1=O", "note": "(stereo not shown) [Example 92, 5-[(4-Chlorophenyl)(fluoro)methyl]-5-methyl-2-(1′H,3H-spiro[2-benzofuran-1,4′-piperidin]-1′-yl)-1,3-oxazol-4(5H)-one]", "Ki": 31.6}
{"smiles": "CCCC1OC(N2CCC3(CC2)OCc2ccccc23)=NC1=O", "note": "(stereo not shown) [Example 1, 5-Propyl-2-(1′H,3H-spiro[2-benzofuran-1,4′-piperidin]-1′-yl)-1,3-oxazol-4(5H)-one]", "Ki": 79.4}
{"smiles": "O=C1C[C@@H]2CC3(C[C@@H]2C1)OC(N1CCC2(CC1)OCc1ccccc12)=NC3=O", "note": "(stereo partly shown) [Example 143, 2-(1′H,3H-Spiro[2-benzofuran-1,4′-piperidin]-1′-yl)-3a′,4′,6′,6a′-tetrahydro-1′H,4H-spiro[1,3-oxazole-5,2′-pentalene]-4,5′(3′H)-dione]", "Ki": 100}
{"smiles": "COc1ccc2c(c1)C(=O)OC21CCN(C2=NC(=O)C(Cc3ccccc3)O2)CC1", "note": "(stereo not shown) [Example 31, 1′-(5-Benzyl-4-oxo-4,5-dihydro-1,3-oxazol-2-yl)-5-methoxy-3H-spiro[2-benzofuran-1,4′-piperidin]-3-one]", "Ki": 100}
{"smiles": "CCCCCC1CCC2(CC1)OC(N1CCC3(CC1)OCc1ccccc13)=NC2=O", "note": "(single isomer, unassigned; diastereomer a) [Example 128, 8-Pentyl-2-(1′H,3H-spiro[2-benzofuran-1,4′-piperidin]-1′-yl)-1-oxa-3-azaspiro[4.5]dec-2-en-4-one diastereomer a]", "Ki": 20}
{"smiles": "CC1(Cc2ccc(Cl)nc2)OC(N2CCC3(CC2)OCc2ccccc23)=NC1=O", "note": "(single isomer, unassigned; (-)) [Example 83, (−)-5-[(6-Chloropyridin-3-yl)methyl]-5-methyl-2-(1′H,3H-spiro[2-benzofuran-1,4′-piperidin]-1′-yl)-1,3-oxazol-4(5H)-one]", "Ki": 39.8}
{"smiles": "CCOC(=O)C1[C@H]2CC3(C[C@@H]12)OC(N1CCC2(CC1)OCc1ccccc12)=NC3=O", "note": "(single isomer, unassigned; diastereomer a) [Example 148, Ethyl 4′-oxo-2′-(1′H,3H-spiro[2-benzofuran-1,4′-piperidin]-1′-yl)-4′H-spiro[bicyclo[3.1.0]hexane-3,5′-[1,3]oxazole]-6-carboxylate diastereomer a]", "Ki": 1000}
{"smiles": "CC1(CC2CCCC2)OC(N2CCC3(CC2)OCc2ccccc23)=NC1=O", "note": "(single isomer, unassigned; (-)) [Example 78, (−)-5-(Cyclopentylmethyl)-5-methyl-2-(1′H,3H-spiro[2-benzofuran-1,4′-piperidin]-1′-yl)-1,3-oxazol-4(5H)-one]", "Ki": 100}
{"smiles": "CC(C)(C)[Si](C)(C)OCC1=CCC2(C1)OC(N1CCC3(CC1)OCc1ccccc13)=NC2=O", "note": "(stereo not shown) [Example 118, 7-({[tert-Butyl(dimethyl)silyl]oxy}methyl)-2-(1′H,3H-spiro[2-benzofuran-1,4′-piperidin]-1′-yl)-1-oxa-3-azaspiro[4.4]nona-2,7-dien-4-one]", "Ki": 316}
{"smiles": "O=C1N=C(N2CCC3(CC2)OCc2ccccc23)OC1C(O)c1ccccc1", "note": "(single isomer, unassigned) [Example 38, 5-(Hydroxy(phenyl)methyl)-2-(1′H,3H-spiro[2-benzofuran-1,4′-piperidin]-1′-yl)-1,3-oxazol-4(5H)-one diastereomer b, enantiomer A]", "Ki": 794}
{"smiles": "CC1(Cc2ccc(Cl)s2)OC(N2CCC3(CC2)OCc2ccccc23)=NC1=O", "note": "(single isomer, unassigned; (+)) [Example 86, (+)-5-[(5-Chlorothiophen-2-yl)methyl]-5-methyl-2-(1′H,3H-spiro[2-benzofuran-1,4′-piperidin]-1′-yl)-1,3-oxazol-4(5H)-one]", "Ki": 1.26}
{"smiles": "CCCCCC1CCC2(CC1)OC(N1CCC3(CC1)OC(=O)c1ccccc13)=NC2=O", "note": "(single isomer, unassigned; diastereomer a) [Example 126, 1′-[4-Oxo-8-pentyl-1-oxa-3-azaspiro[4.5]dec-2-en-2-yl]-3H-spiro[2-benzofuran-1,4′-piperidin]-3-one diastereomer a]", "Ki": 31.6}
{"smiles": "CCCCC1OC(N2CCC3(CC2)OCc2ccccc23)=NC1=O", "note": "(single isomer, unassigned; (+)) [Example 4, (+)-5-Butyl-2-(1′H,3H-spiro[2-benzofuran-1,4′-piperidin]-1′-yl)-1,3-oxazol-4(5H)-one]", "Ki": 5.01}
{"smiles": "C#CCC1(CC=C)OC(N2CCC3(CC2)OCc2ccccc23)=NC1=O", "note": "(stereo not shown) [Example 57, 5-(Prop-2-en-1-yl)-5-(prop-2-yn-1-yl)-2-(1′H,3H-spiro[2-benzofuran-1,4′-piperidin]-1′-yl)-1,3-oxazol-4(5H)-one]", "Ki": 39.8}
{"smiles": "C=CCC1(CC(=C)Br)OC(N2CCC3(CC2)OCc2ccccc23)=NC1=O", "note": "(stereo not shown) [Example 63, 5-(2-Bromoprop-2-en-1-yl)-5-(prop-2-en-1-yl)-2-(1′H,3H-spiro[2-benzofuran-1,4′-piperidin]-1′-yl)-1,3-oxazol-4(5H)-one]", "Ki": 12.6}
{"smiles": "O=C1N=C(N2CCC3(CC2)OCc2cccnc23)OC1Cc1ccccc1", "note": "(stereo not shown) [Example 29, 5-Benzyl-2-(1′H,5H-spiro[furo[3,4-b]pyridine-7,4′-piperidin]-1′-yl)-1,3-oxazol-4(5H)-one]", "Ki": 10}
{"smiles": "CC1(C(O)c2ccccc2)OC(N2CCC3(CC2)OCc2ccccc23)=NC1=O", "note": "(stereo not shown) [Example 90, 5-[Hydroxy(phenyl)methyl]-5-methyl-2-(1′H,3H-spiro[2-benzofuran-1,4′-piperidin]-1′-yl)-1,3-oxazol-4(5H)-one]", "Ki": 126}
{"smiles": "CCCCC1(C)OC(N2CCC3(CC2)OCc2ccccc23)=NC1=O", "note": "(single isomer, unassigned; (-)) [Example 68, (−)-5-Butyl-5-methyl-2-(1′H,3H-spiro[2-benzofuran-1,4′-piperidin]-1′-yl)-1,3-oxazol-4(5H)-one]", "Ki": 200}
{"smiles": "CC1(CC2CCCOC2)OC(N2CCC3(CC2)OCc2ccccc23)=NC1=O", "note": "(single isomer, unassigned; diastereomer a) [Example 102, (+)-5-Methyl-2-(1′H,3H-spiro[2-benzofuran-1,4′-piperidin]-1′-yl)-5-(tetrahydro-2H-pyran-3-ylmethyl)-1,3-oxazol-4(5H)-one diastereomer a]", "Ki": 20}
{"smiles": "CC1=C(C)CC2(C1)OC(N1CCC3(CC1)OCc1ccccc13)=NC2=O", "note": "[Example 115, 7,8-Dimethyl-2-(1′H,3H-spiro[2-benzofuran-1,4′-piperidin]-1′-yl)-1-oxa-3-azaspiro[4.4]nona-2,7-dien-4-one]", "Ki": 10}
{"smiles": "O=C1OC2(CCN(C3=NC(=O)C(Cc4ccccc4)O3)CC2)c2cccc(F)c21", "note": "(stereo not shown) [Example 30, 1′-(5-Benzyl-4-oxo-4,5-dihydro-1,3-oxazol-2-yl)-4-fluoro-3H-spiro[2-benzofuran-1,4′-piperidin]-3-one]", "Ki": 200}
{"smiles": "C=CCC1OC(N2CCC3(CC2)OCc2ccccc23)=NC1=O", "note": "(stereo not shown) [Example 8, 5-(Prop-2-en-1-yl)-2-(1′H,3H-spiro[2-benzofuran-1,4′-piperidin]-1′-yl)-1,3-oxazol-4(5H)-one]", "Ki": 158}
{"smiles": "CC1(C)OC2(CCN(C3=NC(=O)C(Cc4ccccc4)O3)CC2)c2ccccc21", "note": "(stereo not shown) [Example 26, 5-Benzyl-2-(3,3-dimethyl-1′H,3H-spiro[2-benzofuran-1,4′-piperidin]-1′-yl)-1,3-oxazol-4(5H)-one]", "Ki": 0.631}
{"smiles": "O=C1N=C(N2CCC3(CC2)OCc2ccccc23)OC12C[C@@H]1OS(=O)O[C@@H]1C2", "note": "(stereo partly shown) [Example 147, 2′-(1′H,3H-Spiro[2-benzofuran-1,4′-piperidin]-1′-yl)-3a,4,6,6a-tetrahydro-4′H-spiro[cyclopenta[d][1,3,2]dioxathiole-5,5′-[1,3]oxazol]-4′-one 2-oxide]", "Ki": 158}
{"smiles": "O=C1OC2(CCN(C3=NC(=O)C(C(O)c4ccc(Cl)cc4)O3)CC2)c2ccccc21", "note": "(single isomer, unassigned) [Example 50, 1′-{-5-[(4-Chlorophenyl)(hydroxy)methyl]-4-oxo-4,5-dihydro-1,3-oxazol-2-yl}-3H-spiro[2-benzofuran-1,4′-piperidin]-3-one diastereomer a, enantiomer A]", "Ki": 20}
{"smiles": "O=C1N=C(N2CCC3(CC2)OCc2ccccc23)O[C@H]1Cc1ccccc1", "note": "[Example 19, (−)-(5S)-5-Benzyl-2-(1′H,3H-spiro[2-benzofuran-1,4′-piperidin]-1′-yl)-1,3-oxazol-4(5H)-one]", "Ki": 25.1}
